#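 Where inhibition never reached the appropriate level, the endpoint shown equals the highest concentration tested. Otherwise, values were interpolated linearly from a five-concentration, 48-hour dose response in 96-well plates. At the GI50, growth is halved. TGI is the concentration that stops growth completely.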 Where a SMILES comes first, the peptide text is derived from it. [ ]: non-standard residue; d: D form. The star is where a group is joined. ξ: configuration not given here. ξD = NC(CC(=O)O)C(=O)O; Ac3c = NC1(C(=O)O)CC1; Boc = CC(C)(C)OC(=O)*; OBn = c1ccc(CO*)cc1
# Legend:
# Assay in all cases: DTP human tumour cell line panel, 48 h
# HOP-92 NSCLC = system: HOP-92 NSCLC
# IGROV1 ovarian = system: IGROV1 ovarian
# M14 melanoma = system: M14 melanoma
# NCI-H23 lung = system: NCI-H23 lung
# OVCAR-8 ovarian = system: OVCAR-8 ovarian
# SK-MEL-28 melanoma = system: SK-MEL-28 melanoma
# SK-OV-3 ovarian = system: SK-OV-3 ovarian
# U251 CNS = system: U251 CNS
# HCT-116 colon = system: HCT-116 colon
SMILES,TGI (HOP-92 NSCLC) [µM],TGI (IGROV1 ovarian) [µM],TGI (M14 melanoma) [µM],TGI (NCI-H23 lung) [µM],TGI (OVCAR-8 ovarian) [µM],TGI (SK-MEL-28 melanoma) [µM],TGI (SK-OV-3 ovarian) [µM],TGI (U251 CNS) [µM],TGI (HCT-116 colon) [µM],GI50 (HCT-116 colon) [µM],GI50 (IGROV1 ovarian) [nM],GI50 (M14 melanoma) [nM],GI50 (NCI-H23 lung) [nM],GI50 (OVCAR-8 ovarian) [nM],GI50 (SK-MEL-28 melanoma) [nM],GI50 (SK-OV-3 ovarian) [nM],GI50 (U251 CNS) [nM],GI50 (HOP-92 NSCLC) [nM]
O=C1CCC2(CC1CCSc1ccccc1)OCCO2 (centres undefined),> 100,> 100,> 100,> 100,> 100,> 100,> 100,> 100,–,–,–,–,–,–,–,–,–,–
COCN1CCN=c2c1c1c3c(c4ccccc4n23)CCC1,> 100,> 100,> 100,> 100,> 100,> 100,> 100,> 100,> 100,–,–,–,–,–,–,–,–,–
Cc1cn(CC2=NCCCN2)c(=O)[nH]c1=O,> 100,> 100,> 100,> 100,> 100,> 100,> 100,> 100,> 100,–,–,–,–,–,–,–,–,–
COc1c(OC)c(O)c2c(=O)c(OC)c(-c3ccc4c(c3)OCO4)oc2c1O,> 100,> 100,> 100,> 100,> 100,> 100,> 100,> 100,> 100,–,–,–,–,–,–,–,–,–
C1#Cc2ccccc2OCCOc2ccccc2C#Cc2ccccc2OCCOc2ccccc21,–,41.5,> 100,34.8,28.3,> 100,–,28.1,> 100,–,–,–,–,–,–,–,–,–
COC(=O)C1(NC(=O)C(CC(=O)OCc2ccccc2)NC(=O)OC(C)(C)C)CC1 (centres undefined) (Boc-[ξD](OBn)-[Ac3c]-OMe),> 100,> 100,> 100,> 100,> 100,> 100,77.4,> 100,> 100,–,–,–,–,–,–,–,–,–
Cc1cc2ccccc2n1CC(=O)N1CCCC1,> 100,> 100,> 100,> 100,> 100,> 100,> 100,> 100,> 100,–,–,–,–,–,–,–,–,–
S=c1nc2[nH]c3ccc(Br)cc3c2n[nH]1,> 100,> 100,> 100,–,> 100,> 100,> 100,> 100,> 100,–,–,–,–,–,–,–,–,–
O=C1CSC2=NCC3(NN12)c1ccccc1-c1ccccc13,> 10,> 10,> 10,> 10,> 10,> 10,> 10,–,> 10,–,–,–,–,–,–,–,–,–
O=c1[nH]c2cc3cccnc3c(Cl)c2nc1C(F)(F)F,60.5,> 100,> 100,> 100,> 100,> 100,> 100,> 100,> 100,–,–,–,–,–,–,–,–,–
Cc1cc(Nc2ccc(N=Nc3ccc(O)c4ncccc34)cc2)nc(C)n1,46.7,32,36.1,> 54.2,48.3,> 68.7,> 72.7,33.4,44.6,–,–,–,–,–,–,–,–,–
O=c1[nH]c(=O)n(COCc2ccccc2)c2ccc(Br)cc12,> 100,> 100,> 100,–,> 100,> 100,> 100,> 100,> 100,–,–,–,–,–,–,–,–,–
CC(C)(C)n1c(=O)n(C(=O)C(Cl)(Cl)Cl)n(C(=O)C(Cl)(Cl)Cl)c1=O,> 100,> 100,> 100,> 100,> 100,> 100,> 100,> 100,> 100,–,–,–,–,–,–,–,–,–
COc1ccc(C(=C(I)c2ccccc2)c2ccc(OC)cc2)cc1,> 100,> 100,> 100,> 100,> 100,> 100,> 100,> 100,> 100,–,–,–,–,–,–,–,–,–
CCOC(=O)C1=C(C)C(C(=O)OC)/C(=C/c2cccc3cccnc23)C1=O (centres undefined),> 10,> 10,> 10,> 10,> 10,> 10,> 10,> 10,> 10,–,–,–,–,–,–,–,–,–
CC(C)[C@H]1NC(=O)[C@H]2N=C(O[C@@H]2C)[C@@H]2CCCN2C(=O)[C@H](Cc2ccccc2)NC(=O)[C@@H]2CSC(=N2)[C@@H](Cc2ccccc2)NC(=O)[C@@H]2CSC1=N2,–,> 100,> 100,> 100,> 100,> 100,> 100,> 100,> 100,–,–,–,–,–,–,–,–,–
CC1CC[C@@]2(OC1)O[C@H]1C[C@H]3[C@@H]4CC[C@H]5C[C@@H](OC6OC(CO)C(OC7OC(CO)C(OC8OC(CO)C(O)C(OC9OC(C)C(OC%10OC(C)C(O)C(O)C%10O)C(O)C9O)C8OC8OCC(O)C(O)C8O)C(O)C7O)C(O)C6O)CC[C@]5(C)[C@H]4CC(=O)[C@]3(C)[C@H]1[C@@H]2C (some centres undefined),38.2,37.4,41.7,35.8,38.4,34.3,41.6,33.3,52.9,–,–,–,–,–,–,–,–,–
OCC(Cn1cncn1)(c1ccc(F)cc1F)n1cncn1 (centres undefined),–,> 100,> 100,> 100,> 100,> 100,> 100,> 100,> 100,–,–,–,–,–,–,–,–,–
Nc1ccccc1NC(=O)CCCCCCC(=O)Nc1ccc2c(c1)/C(=C/c1ccc[nH]1)C(=O)N2,–,> 100,> 100,> 100,> 100,> 100,> 100,> 100,> 100,6.13,49800,69200,> 100000,5590,> 100000,6720,1080,–
Cc1ccc(C)c(COCCOCn2cc(Br)c(N)nc2=O)c1,> 100,> 100,> 100,> 100,> 100,> 100,> 100,> 100,> 100,–,–,–,–,–,–,–,–,–
CC(NC(=O)OCc1ccccc1)NC(=O)C(CC(=O)OC(C)(C)C)NC(=O)OC(C)(C)C (centres undefined),> 100,> 100,> 100,> 100,> 100,> 100,> 100,> 100,> 100,–,–,–,–,–,–,–,–,–
Cc1ccc(NC(=S)Nc2c(C)n(C)n(-c3ccccc3)c2=O)cc1,> 100,> 100,> 100,> 100,> 100,> 100,> 100,> 100,> 100,–,–,–,–,–,–,–,–,–
Nc1ccc(-c2nc3cc(F)ccc3s2)cc1I,39.3,22.3,> 100,18.9,42.4,> 100,32.9,26.8,53,–,–,–,–,–,–,–,–,–

SMILES,TGI (HOP-92 NSCLC) [µM],TGI (IGROV1 ovarian) [µM],TGI (M14 melanoma) [µM],TGI (NCI-H23 lung) [µM],TGI (OVCAR-8 ovarian) [µM],TGI (SK-MEL-28 melanoma) [µM],TGI (SK-OV-3 ovarian) [µM],TGI (U251 CNS) [µM],TGI (HCT-116 colon) [µM],GI50 (HCT-116 colon) [µM],GI50 (IGROV1 ovarian) [nM],GI50 (M14 melanoma) [nM],GI50 (NCI-H23 lung) [nM],GI50 (OVCAR-8 ovarian) [nM],GI50 (SK-MEL-28 melanoma) [nM],GI50 (SK-OV-3 ovarian) [nM],GI50 (U251 CNS) [nM],GI50 (HOP-92 NSCLC) [nM]
OCC(O)C1OC2CC1Nc1ccccc1N2 (centres undefined),> 100,> 100,–,> 100,> 100,> 100,> 100,> 100,> 100,–,–,–,–,–,–,–,–,–
COC(=O)c1ccccc1C#CCCCOS(C)(=O)=O,–,> 10,> 10,> 10,> 10,> 10,> 10,> 10,> 10,–,–,–,–,–,–,–,–,–
CC(C)(C)OC(=O)NC(Cc1ccc(O)cn1)C(N)=O (centres undefined),> 100,> 100,–,> 100,> 100,> 100,–,> 100,> 100,–,–,–,–,–,–,–,–,–
O=C(NC1(C(=O)NNc2nnc(-c3ccccc3)c(-c3ccccc3)n2)C(c2ccccc2)C(c2ccccc2)=NN1c1ccccc1)c1ccccc1 (centres undefined),> 100,–,> 100,> 100,> 100,–,> 100,> 100,> 100,–,–,–,–,–,–,–,–,–
Cc1cc(N=Cc2c(CO)cnc(C)c2O)c(N=Cc2c(CO)cnc(C)c2O)cc1C.[Zn],> 100,> 100,> 100,–,> 100,> 100,> 100,> 100,> 100,–,–,–,–,–,–,–,–,–
Fc1ccc(C2CC(c3cccc(Nc4ccncc4)c3)=NN2c2cc(Cl)cc(Cl)c2)cc1 (centres undefined),–,3.3,3.28,3.19,4.77,3.31,3.54,–,3.15,1.66,1740,1740,1700,2200,1740,1790,–,–
O=c1[nH]c2ccccc2nc1/C=C(\O)C(F)F,–,> 100,> 100,> 100,> 100,> 100,> 100,> 100,> 100,–,–,–,–,–,–,–,–,–
O=c1c2ccccc2n2nnc3ccc(NCCCNCCNCCCNc4ccc5nnn6c7ccccc7c(=O)c4c56)c1c32,> 50,8.58,> 30,15.3,> 20.2,> 39.3,> 41.2,–,> 38.5,–,–,–,–,–,–,–,–,–
CC(=NCCN(CCN=C(C)c1c(O)cc(C)oc1=O)CCN=C(C)c1c(O)cc(C)oc1=O)c1c(O)cc(C)oc1=O,–,> 100,> 100,–,> 100,> 100,> 100,> 100,> 100,–,–,–,–,–,–,–,–,–
COc1ccccc1NC(=S)N/N=C(/C)c1ccccn1,> 100,–,2.54,> 100,> 100,> 100,> 89.2,> 100,13.8,–,–,–,–,–,–,–,–,–
CCc1nn(S(=O)(=O)c2ccc(C)cc2)c2c1CS(=O)(=O)CC2,–,–,> 100,> 100,> 100,> 100,> 100,> 100,> 100,–,–,–,–,–,–,–,–,–
CC1(C)[C@@H](Cn2cnc3c(=O)[nH]c(N)nc32)CC[C@@]1(C)CO,> 100,–,> 100,–,–,> 100,> 100,> 100,> 100,–,–,–,–,–,–,–,–,–
Cn1c(-c2ccc[se]2)ccc1-c1ccc(CO)[se]1,43.2,–,> 100,> 84.3,> 100,> 100,42.5,15.8,> 100,–,–,–,–,–,–,–,–,–
CCOC(=O)c1c2c(n3ccc(NC(=O)OC(C)(C)C)cc13)C(=O)c1ncccc1C2=O,0.927,2.28,1.26,0.669,2.09,1.4,1.48,1.25,–,–,152,44.5,147,148,232,236,46.5,137
CC(=O)NC1C(OCc2ccccc2)OC(CO)C(O)C1OCC(=O)NC(C)C(=O)NC(CCC(=O)NCCCCCNc1c2ccccc2nc2cccc([N+](=O)[O-])c12)C(N)=O (centres undefined),0.00311,–,< 0.0001,–,0.017,< 0.0001,–,< 0.0001,< 0.0001,–,12.4,–,–,–,–,–,–,–
Cc1ccc(-n2c(O)c3c(N)n[nH]c3c(C#N)c2=O)cc1,–,> 100,> 100,> 100,> 100,> 100,> 100,> 100,> 100,–,–,–,–,–,–,–,–,–
O=C1CCCC2=C1C(c1ccc3c(c1)OCO3)Nc1ccc3ccccc3c12 (centres undefined),–,> 100,> 100,> 100,> 100,> 100,> 100,> 100,> 100,–,–,–,–,–,–,–,–,–
COc1ccc(-c2nc(-c3cc4ccccc4oc3=O)cs2)cc1,> 100,> 100,> 100,–,56.3,> 100,91.6,47.4,> 100,–,–,–,–,–,–,–,–,–
NS(=O)(=O)c1ccc(Nc2c3ccccc3nc3c(C(=O)NCCCN(CCO)CCO)cccc23)cc1,> 100,68.2,45.1,53.8,> 100,41.9,> 100,31.7,–,–,–,–,–,–,–,–,–,–
CN1C/C(=C\c2ccc(Cl)cc2)C(=O)/C(=C/c2ccc(Cl)cc2)C1,> 100,> 100,5.48,> 22.3,0.605,> 100,–,2.46,0.482,–,–,–,–,–,–,–,–,–
CCN(CC)C(=S)N/N=C/c1ccccn1,2.44,11.7,0.349,–,–,> 100,–,> 100,–,–,–,–,–,–,–,–,–,–
COc1ccc(Oc2nc3ccc(C(F)(F)F)cc3nc2-c2ccccc2)cc1,> 100,> 100,–,–,–,> 100,> 100,> 100,> 100,–,–,–,–,–,–,–,–,–

# Reference: PubChem BioAssay (NCI)
